Patent US6433197B1, “Substituted oxygen alicyclic compounds, including methods for synthesis thereof” (Millennium Pharmaceuticals, Inc., priority 1998, dated 2002)

Tested on: Leukotriene B4
Test: Human whole blood assay, Leukotriene B4 inhibition
Format: cell-based
Conditions: heparinized human whole blood; pre-incubated 15 minutes at 37° C.; stimulated with 50 μM calcium ionphor for 30 minutes at 37° C.; EIA; read-out: IC50 (Leukotriene B4 inhibition, LTB4 content of plasma)
Experimental: The following compound of the invention was tested for Leukotriene B4 inhibition in the human whole blood assay detailed below. [drawing 40]
Heparinized human whole blood was pre-incubated with selected concentrations of the test compound for 15 minutes at 37° C. and stimulated with 50 μM calcium ionphor for 30 minutes at 37° C. The reaction was stopped by placing samples on ice and cold centrifugation at 4° C. for 10 minutes at 1100×g. Test sample plasma was diluted in buffer and assayed for LTB4 content. Test compound activity was determined as per Cayman […] EIA and evaluated as IC50 [nM].

- IC50: 148 nM
Compound: NC(=O)N(O)CC#CC1CC[C@@H](Cc2ccc(F)cc2)O1 (stereo partly shown)
